Data: patent EP4722207A1, “OXOISOINDOLINYL-SUBSTITUTED TETRAHYDROPYRIMIDINEDIONE DERIVATIVE AND USE THEREOF” (Gluetacs Therapeutics (Shanghai) Co., Ltd., priority 2023, dated 2024)

Experiments:
Assay type in all cases: cell-based
Settings in all cases: compounds at 50 nM and 500 nM, 24 hours
IKZF1 = molecular target: T1, IKZF1 (Homo sapiens, UniProt Q13422+Q96SW2); assay: Western-blot assay, substrate protein degradation in hPBMCs: IKZF1
T1 construct: effects of the compounds of the present disclosure on the expression of target proteins in cells; endogenous in cells; host or cells: human PBMCs (hPBMCs)
T1 sequence (Q13422 whole entry): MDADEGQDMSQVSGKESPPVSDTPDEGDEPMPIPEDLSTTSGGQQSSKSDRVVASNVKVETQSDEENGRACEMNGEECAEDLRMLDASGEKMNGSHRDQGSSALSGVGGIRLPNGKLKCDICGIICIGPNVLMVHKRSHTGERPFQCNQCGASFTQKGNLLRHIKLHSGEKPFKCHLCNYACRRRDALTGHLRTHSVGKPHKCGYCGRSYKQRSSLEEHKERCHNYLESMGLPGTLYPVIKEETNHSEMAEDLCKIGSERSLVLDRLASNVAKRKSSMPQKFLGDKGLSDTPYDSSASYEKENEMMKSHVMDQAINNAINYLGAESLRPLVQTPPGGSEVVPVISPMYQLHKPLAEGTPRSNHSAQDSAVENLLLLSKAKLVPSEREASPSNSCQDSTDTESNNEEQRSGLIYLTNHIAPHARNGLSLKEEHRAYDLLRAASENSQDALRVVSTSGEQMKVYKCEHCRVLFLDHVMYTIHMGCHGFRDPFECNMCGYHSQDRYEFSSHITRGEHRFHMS
T1 sequence (Q96SW2 whole entry): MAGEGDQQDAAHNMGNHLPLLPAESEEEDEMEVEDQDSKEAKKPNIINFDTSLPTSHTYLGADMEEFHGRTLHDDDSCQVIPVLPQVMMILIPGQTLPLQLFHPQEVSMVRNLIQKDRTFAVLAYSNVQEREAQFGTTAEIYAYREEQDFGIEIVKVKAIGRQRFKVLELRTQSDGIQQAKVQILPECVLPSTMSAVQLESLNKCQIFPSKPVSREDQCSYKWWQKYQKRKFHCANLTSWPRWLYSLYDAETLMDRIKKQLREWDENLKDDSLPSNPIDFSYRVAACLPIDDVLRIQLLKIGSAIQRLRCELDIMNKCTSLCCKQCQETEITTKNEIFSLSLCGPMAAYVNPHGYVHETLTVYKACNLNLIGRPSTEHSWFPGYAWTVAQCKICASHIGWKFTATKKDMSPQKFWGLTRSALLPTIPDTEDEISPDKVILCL
T1 sequence (Q16531 whole entry partner): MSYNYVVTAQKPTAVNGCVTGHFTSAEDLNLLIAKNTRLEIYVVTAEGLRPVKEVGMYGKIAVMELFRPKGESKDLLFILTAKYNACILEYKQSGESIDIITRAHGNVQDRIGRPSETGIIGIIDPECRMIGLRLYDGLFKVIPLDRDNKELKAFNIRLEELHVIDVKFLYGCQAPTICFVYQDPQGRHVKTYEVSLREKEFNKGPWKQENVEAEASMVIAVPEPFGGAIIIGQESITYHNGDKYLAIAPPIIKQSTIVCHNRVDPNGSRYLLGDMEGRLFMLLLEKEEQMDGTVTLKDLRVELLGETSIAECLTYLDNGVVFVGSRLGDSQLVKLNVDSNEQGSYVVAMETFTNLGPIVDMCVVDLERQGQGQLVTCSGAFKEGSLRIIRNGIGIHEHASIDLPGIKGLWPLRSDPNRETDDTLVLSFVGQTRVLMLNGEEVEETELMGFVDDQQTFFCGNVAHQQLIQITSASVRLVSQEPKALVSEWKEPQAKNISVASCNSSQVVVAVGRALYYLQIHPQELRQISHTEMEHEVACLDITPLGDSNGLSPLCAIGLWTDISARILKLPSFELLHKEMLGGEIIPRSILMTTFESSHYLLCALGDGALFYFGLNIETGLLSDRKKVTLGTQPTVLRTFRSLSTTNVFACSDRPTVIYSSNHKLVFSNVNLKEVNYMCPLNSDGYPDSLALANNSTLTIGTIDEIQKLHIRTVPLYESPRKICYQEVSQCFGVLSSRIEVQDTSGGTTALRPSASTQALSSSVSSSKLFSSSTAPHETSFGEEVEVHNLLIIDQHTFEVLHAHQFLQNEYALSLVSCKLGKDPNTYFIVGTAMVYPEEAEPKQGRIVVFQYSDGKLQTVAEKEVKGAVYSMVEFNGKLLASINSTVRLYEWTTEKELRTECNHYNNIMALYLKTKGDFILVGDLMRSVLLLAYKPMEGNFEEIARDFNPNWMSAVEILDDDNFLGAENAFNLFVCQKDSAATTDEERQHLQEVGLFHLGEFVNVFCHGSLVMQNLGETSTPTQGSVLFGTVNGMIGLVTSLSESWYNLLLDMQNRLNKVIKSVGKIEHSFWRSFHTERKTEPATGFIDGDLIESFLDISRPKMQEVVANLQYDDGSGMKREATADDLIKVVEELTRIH

WEE1 = molecular target: T2, WEE1 (Homo sapiens, UniProt P30291+Q96SW2); assay: Western-blot assay, substrate protein degradation in hPBMCs: WEE1
T2 construct: effects of the compounds of the present disclosure on the expression of target proteins in cells; endogenous in cells; host or cells: human PBMCs (hPBMCs)
T2 sequence (P30291 whole entry): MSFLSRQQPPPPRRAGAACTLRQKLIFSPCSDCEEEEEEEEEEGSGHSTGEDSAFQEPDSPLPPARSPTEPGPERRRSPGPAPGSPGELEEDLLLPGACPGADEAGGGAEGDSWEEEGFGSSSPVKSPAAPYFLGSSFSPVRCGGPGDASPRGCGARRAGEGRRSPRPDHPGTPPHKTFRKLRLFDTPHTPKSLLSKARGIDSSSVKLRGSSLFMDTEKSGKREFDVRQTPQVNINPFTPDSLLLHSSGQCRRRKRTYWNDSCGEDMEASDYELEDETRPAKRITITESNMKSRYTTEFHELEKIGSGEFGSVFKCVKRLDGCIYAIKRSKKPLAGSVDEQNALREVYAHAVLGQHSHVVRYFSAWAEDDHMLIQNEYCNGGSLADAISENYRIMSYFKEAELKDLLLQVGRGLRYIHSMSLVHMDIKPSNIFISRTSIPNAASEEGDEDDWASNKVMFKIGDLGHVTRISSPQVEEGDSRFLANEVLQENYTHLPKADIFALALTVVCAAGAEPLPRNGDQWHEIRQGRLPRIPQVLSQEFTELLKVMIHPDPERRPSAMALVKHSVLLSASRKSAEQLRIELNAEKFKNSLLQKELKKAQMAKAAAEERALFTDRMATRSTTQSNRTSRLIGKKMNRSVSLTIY
T2 sequence (Q96SW2 whole entry): as the sequence (Q96SW2 whole entry) above
T2 sequence (Q16531 whole entry partner): as the sequence (Q16531 whole entry partner) above

GSPT1 = molecular target: T3, GSPT1 (Homo sapiens, UniProt P15170+Q96SW2); assay: Western-blot assay, substrate protein degradation in hPBMCs: GSPT1
T3 construct: effects of the compounds of the present disclosure on the expression of target proteins in cells; endogenous in cells; host or cells: human PBMCs (hPBMCs)
T3 sequence (P15170 whole entry): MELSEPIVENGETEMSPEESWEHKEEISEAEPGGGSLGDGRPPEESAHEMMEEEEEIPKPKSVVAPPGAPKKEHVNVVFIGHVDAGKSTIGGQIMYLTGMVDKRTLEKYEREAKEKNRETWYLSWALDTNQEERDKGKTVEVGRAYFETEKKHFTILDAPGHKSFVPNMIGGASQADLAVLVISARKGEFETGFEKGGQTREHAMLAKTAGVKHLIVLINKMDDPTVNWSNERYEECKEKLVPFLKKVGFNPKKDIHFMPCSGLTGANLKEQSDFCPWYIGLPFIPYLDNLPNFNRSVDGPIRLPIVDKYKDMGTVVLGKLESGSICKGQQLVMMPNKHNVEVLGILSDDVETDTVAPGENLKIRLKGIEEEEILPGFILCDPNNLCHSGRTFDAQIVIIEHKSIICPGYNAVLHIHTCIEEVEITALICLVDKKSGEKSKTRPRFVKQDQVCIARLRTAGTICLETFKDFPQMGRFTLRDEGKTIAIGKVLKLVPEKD
T3 sequence (Q96SW2 whole entry): as the sequence (Q96SW2 whole entry) above
T3 sequence (Q16531 whole entry partner): as the sequence (Q16531 whole entry partner) above

IKZF3 = molecular target: T4, IKZF3 (Homo sapiens, UniProt Q96SW2+Q9UKT9); assay: Western-blot assay, substrate protein degradation in hPBMCs: IKZF3
T4 construct: effects of the compounds of the present disclosure on the expression of target proteins in cells; endogenous in cells; host or cells: human PBMCs (hPBMCs)
T4 sequence (Q9UKT9 whole entry): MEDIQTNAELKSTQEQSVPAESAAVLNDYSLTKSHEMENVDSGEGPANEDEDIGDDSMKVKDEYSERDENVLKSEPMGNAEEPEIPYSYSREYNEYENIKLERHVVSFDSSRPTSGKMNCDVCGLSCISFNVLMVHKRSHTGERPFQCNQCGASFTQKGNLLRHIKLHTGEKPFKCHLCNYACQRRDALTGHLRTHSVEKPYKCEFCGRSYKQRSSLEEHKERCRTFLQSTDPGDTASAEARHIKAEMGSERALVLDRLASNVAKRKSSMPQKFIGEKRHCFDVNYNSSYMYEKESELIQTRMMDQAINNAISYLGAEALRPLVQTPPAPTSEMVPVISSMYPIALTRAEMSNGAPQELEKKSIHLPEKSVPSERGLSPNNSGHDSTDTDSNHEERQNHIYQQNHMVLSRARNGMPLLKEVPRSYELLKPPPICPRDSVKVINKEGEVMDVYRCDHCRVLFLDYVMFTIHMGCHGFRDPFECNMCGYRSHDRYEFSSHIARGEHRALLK
T4 sequence (Q96SW2 whole entry): as the sequence (Q96SW2 whole entry) above
T4 sequence (Q16531 whole entry partner): as the sequence (Q16531 whole entry partner) above

CK1α = molecular target: T5, CK1α (Homo sapiens, UniProt P48729+Q96SW2); assay: Western-blot assay, substrate protein degradation in hPBMCs: CK1α
T5 construct: effects of the compounds of the present disclosure on the expression of target proteins in cells; endogenous in cells; host or cells: human PBMCs (hPBMCs)

IKZF2 = molecular target: T6, IKZF2 (Homo sapiens, UniProt Q96SW2+Q9UKS7); assay: Western-blot assay, substrate protein degradation in hPBMCs: IKZF2
T6 construct: effects of the compounds of the present disclosure on the expression of target proteins in cells; endogenous in cells; host or cells: human PBMCs (hPBMCs)
T6 sequence (Q9UKS7 whole entry): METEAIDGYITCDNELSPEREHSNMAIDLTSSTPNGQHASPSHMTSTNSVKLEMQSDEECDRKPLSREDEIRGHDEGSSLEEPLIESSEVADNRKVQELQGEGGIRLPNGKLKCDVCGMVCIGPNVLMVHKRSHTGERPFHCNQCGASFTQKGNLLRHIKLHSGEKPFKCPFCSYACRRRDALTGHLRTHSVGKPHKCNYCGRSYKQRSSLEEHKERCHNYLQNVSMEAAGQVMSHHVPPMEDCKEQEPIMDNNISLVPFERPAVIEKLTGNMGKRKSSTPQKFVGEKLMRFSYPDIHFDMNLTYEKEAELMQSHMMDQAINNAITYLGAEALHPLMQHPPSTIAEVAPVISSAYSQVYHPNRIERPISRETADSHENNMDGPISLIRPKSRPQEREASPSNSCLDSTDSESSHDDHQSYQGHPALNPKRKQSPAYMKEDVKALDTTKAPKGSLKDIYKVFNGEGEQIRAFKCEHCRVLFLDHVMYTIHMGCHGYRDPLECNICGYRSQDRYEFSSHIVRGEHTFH
T6 sequence (Q96SW2 whole entry): as the sequence (Q96SW2 whole entry) above
T6 sequence (Q16531 whole entry partner): as the sequence (Q16531 whole entry partner) above

SMILES	IKZF1 substrate protein remaining % (IKZF1)	WEE1 substrate protein remaining % (WEE1)	GSPT1 substrate protein remaining % (GSPT1)	IKZF3 substrate protein remaining % (IKZF3)	CK1α substrate protein remaining % (CK1α)	IKZF2 substrate protein remaining % (IKZF2)
Cc1ccc(N2CCN(Cc3ccc4c(c3)CN(N3CCC(=O)NC3=O)C4=O)CC2)cc1 [GT-06771, 1-(1-oxo-5-((4-(p-tolyl)piperazin-1-yl)methyl)isoindolin-2-yl)dihydropyrimidine-2,4(1H,3H)-dione]	B ("B" is defined as 80%< substrate protein remaining %≤ 100%)	A ("A" is defined as 0% ≤ substrate protein remaining % ≤ 80%)	A ("A" is defined as 0% ≤ substrate protein remaining % ≤ 80%)	A ("A" is defined as 0% ≤ substrate protein remaining % ≤ 80%)	A ("A" is defined as 0% ≤ substrate protein remaining % ≤ 80%)	A ("A" is defined as 0% ≤ substrate protein remaining % ≤ 80%)
O=C1CCN(N2Cc3cc(CN4CCN(c5ccc(Cl)cc5Cl)CC4)ccc3C2=O)C(=O)N1 [GT-06772, 1-(5-((4-(2,4-dichlorophenyl)piperazin-1-yl)methyl)-1-oxoisoindolin-2-yl)dihydropyrimidine-2,4(1H,3H)-dione]	B ("B" is defined as 80%< substrate protein remaining %≤ 100%)	A ("A" is defined as 0% ≤ substrate protein remaining % ≤ 80%)	A ("A" is defined as 0% ≤ substrate protein remaining % ≤ 80%)	A ("A" is defined as 0% ≤ substrate protein remaining % ≤ 80%)	A ("A" is defined as 0% ≤ substrate protein remaining % ≤ 80%)	A ("A" is defined as 0% ≤ substrate protein remaining % ≤ 80%)
O=C1CCN(N2Cc3cc(CN4CCN(c5c(Cl)cccc5Cl)CC4)ccc3C2=O)C(=O)N1 [GT-06774, 1-(5-((4-(2,6-dichlorophenyl)piperazin-1-yl)methyl)-1-oxoisoindolin-2-yl)dihydropyrimidine-2,4(1H,3H)-dione]	B ("B" is defined as 80%< substrate protein remaining %≤ 100%)	B ("B" is defined as 80%< substrate protein remaining %≤ 100%)	A ("A" is defined as 0% ≤ substrate protein remaining % ≤ 80%)	A ("A" is defined as 0% ≤ substrate protein remaining % ≤ 80%)	A ("A" is defined as 0% ≤ substrate protein remaining % ≤ 80%)	A ("A" is defined as 0% ≤ substrate protein remaining % ≤ 80%)
O=C1CCN(N2Cc3cc(CN4CCN(c5ccc(Cl)c(Cl)c5)CC4)ccc3C2=O)C(=O)N1 [GT-06775, 1-(5-((4-(3,4-dichlorophenyl)piperazin-1-yl)methyl)-1-oxoisoindolin-2-yl)dihydropyrimidine-2,4(1H,3H)-dione]	B ("B" is defined as 80%< substrate protein remaining %≤ 100%)	B ("B" is defined as 80%< substrate protein remaining %≤ 100%)	A ("A" is defined as 0% ≤ substrate protein remaining % ≤ 80%)	A ("A" is defined as 0% ≤ substrate protein remaining % ≤ 80%)	A ("A" is defined as 0% ≤ substrate protein remaining % ≤ 80%)	A ("A" is defined as 0% ≤ substrate protein remaining % ≤ 80%)
O=C1CCN(N2Cc3cc(CN4CCN(c5ccc(F)cc5F)CC4)ccc3C2=O)C(=O)N1 [GT-06778, 1-(5-((4-(2,4-difluorophenyl)piperazin-1-yl)methyl)-1-oxoisoindolin-2-yl)dihydropyrimidine-2,4(1H,3H)-dione]	B ("B" is defined as 80%< substrate protein remaining %≤ 100%)	B ("B" is defined as 80%< substrate protein remaining %≤ 100%)	A ("A" is defined as 0% ≤ substrate protein remaining % ≤ 80%)	B ("B" is defined as 80%< substrate protein remaining %≤ 100%)	A ("A" is defined as 0% ≤ substrate protein remaining % ≤ 80%)	B ("B" is defined as 80%< substrate protein remaining %≤ 100%)
O=C1CCN(N2Cc3cc(CN4CCN(c5cc(F)ccc5F)CC4)ccc3C2=O)C(=O)N1 [GT-06779, 1-(5-((4-(2,5-difluorophenyl)piperazin-1-yl)methyl)-1-oxoisoindolin-2-yl)dihydropyrimidine-2,4(1H,3H)-dione]	B ("B" is defined as 80%< substrate protein remaining %≤ 100%)	B ("B" is defined as 80%< substrate protein remaining %≤ 100%)	B ("B" is defined as 80%< substrate protein remaining %≤ 100%)	B ("B" is defined as 80%< substrate protein remaining %≤ 100%)	A ("A" is defined as 0% ≤ substrate protein remaining % ≤ 80%)	B ("B" is defined as 80%< substrate protein remaining %≤ 100%)
O=C1CCN(N2Cc3cc(CN4CCN(c5c(F)cccc5F)CC4)ccc3C2=O)C(=O)N1 [GT-06780, 1-(5-((4-(2,6-difluorophenyl)piperazin-1-yl)methyl)-1-oxoisoindolin-2-yl)dihydropyrimidine-2,4(1H,3H)-dione]	B ("B" is defined as 80%< substrate protein remaining %≤ 100%)	B ("B" is defined as 80%< substrate protein remaining %≤ 100%)	B ("B" is defined as 80%< substrate protein remaining %≤ 100%)	B ("B" is defined as 80%< substrate protein remaining %≤ 100%)	A ("A" is defined as 0% ≤ substrate protein remaining % ≤ 80%)	B ("B" is defined as 80%< substrate protein remaining %≤ 100%)
O=C1CCN(N2Cc3cc(CN4CCN(c5ccc(F)c(F)c5)CC4)ccc3C2=O)C(=O)N1 [GT-06781, 1-(5-((4-(3,4-difluorophenyl)piperazin-1-yl)methyl)-1-oxoisoindolin-2-yl)dihydropyrimidine-2,4(1H,3H)-dione]	B ("B" is defined as 80%< substrate protein remaining %≤ 100%)	B ("B" is defined as 80%< substrate protein remaining %≤ 100%)	A ("A" is defined as 0% ≤ substrate protein remaining % ≤ 80%)	B ("B" is defined as 80%< substrate protein remaining %≤ 100%)	A ("A" is defined as 0% ≤ substrate protein remaining % ≤ 80%)	B ("B" is defined as 80%< substrate protein remaining %≤ 100%)
O=C1CCN(N2Cc3cc(CN4CCN(c5cc(F)cc(F)c5)CC4)ccc3C2=O)C(=O)N1 [GT-06782, 1-(5-((4-(3,5-difluorophenyl)piperazin-1-yl)methyl)-1-oxoisoindolin-2-yl)dihydropyrimidine-2,4(1H,3H)-dione]	B ("B" is defined as 80%< substrate protein remaining %≤ 100%)	B ("B" is defined as 80%< substrate protein remaining %≤ 100%)	A ("A" is defined as 0% ≤ substrate protein remaining % ≤ 80%)	B ("B" is defined as 80%< substrate protein remaining %≤ 100%)	A ("A" is defined as 0% ≤ substrate protein remaining % ≤ 80%)	B ("B" is defined as 80%< substrate protein remaining %≤ 100%)
O=C1CCN(N2C(=O)c3ccc(CN4CCN(c5ccc(Cl)cc5)CC4)cc3C2=O)C(=O)N1 [GT-06783, 5-((4-(4-chlorophenyl)piperazin-1-yl)methyl)-2-(2,4-dioxotetrahydropyrimidin-1(2H)-yl)isoindoline-1,3-dione]	B ("B" is defined as 80%< substrate protein remaining %≤ 100%)	B ("B" is defined as 80%< substrate protein remaining %≤ 100%)	B ("B" is defined as 80%< substrate protein remaining %≤ 100%)	A ("A" is defined as 0% ≤ substrate protein remaining % ≤ 80%)	B ("B" is defined as 80%< substrate protein remaining %≤ 100%)	B ("B" is defined as 80%< substrate protein remaining %≤ 100%)
O=C1CCN(N2C(=O)c3ccc(CN4CCN(c5ccc(Br)cc5)CC4)cc3C2=O)C(=O)N1 [GT-06784, 5-((4-(4-bromophenyl)piperazin-1-yl)methyl)-2-(2,4-dioxotetrahydropyrimidin-1(2H)-yl)isoindoline-1,3-dione]	B ("B" is defined as 80%< substrate protein remaining %≤ 100%)	B ("B" is defined as 80%< substrate protein remaining %≤ 100%)	B ("B" is defined as 80%< substrate protein remaining %≤ 100%)	B ("B" is defined as 80%< substrate protein remaining %≤ 100%)	A ("A" is defined as 0% ≤ substrate protein remaining % ≤ 80%)	B ("B" is defined as 80%< substrate protein remaining %≤ 100%)
O=C1CCN(N2C(=O)c3ccc(CN4CCN(c5cccc(F)c5F)CC4)cc3C2=O)C(=O)N1 [GT-06793, 5-((4-(2,3-difluorophenyl)piperazin-1-yl)methyl)-2-(2,4-dioxotetrahydropyrimidin-1(2H)-yl)isoindoline-1,3-dione]	B ("B" is defined as 80%< substrate protein remaining %≤ 100%)	B ("B" is defined as 80%< substrate protein remaining %≤ 100%)	B ("B" is defined as 80%< substrate protein remaining %≤ 100%)	B ("B" is defined as 80%< substrate protein remaining %≤ 100%)	B ("B" is defined as 80%< substrate protein remaining %≤ 100%)	A ("A" is defined as 0% ≤ substrate protein remaining % ≤ 80%)
